Experimental data taken from US20230192657A1, “1,2,4-TRIAZOLINONE CB1 INHIBITORS” (Goldfinch Bio, Inc., priority 2020, published 2023).

Molecular target: CB1 receptor (Homo sapiens, UniProt P21554)
Test: CB1 cAMP Antagonist Assay (LANCE Ultra cAMP kit)
Assay type: cell-based
Settings: Flp-In CHO cells stably expressing the CB1 receptor; forskolin and CP55940 agonist at EC90; cAMP FRET readout
Text: CB1 cAMP Antagonist Assay
LANCE Ultra cAMP kit (Perkin Elmer) was used to quantitate the amount of 3′,5′-cyclic adenosine monophosphate (cAMP) produced in Flp-In CHO (Invitrogen) cells stably expressing the CB1 receptor.
Forskolin was initially titrated to determine the response of the cells. The EC90 of forskolin was used for compound testing. CP55940 was titrated and used with EC90 of forskolin to determine the level of agonist stimulation. EC90 of the agonist was used for subsequent compound testing.
Forskolin (Sigma), CP55940 (Cayman Chemicals), and AM251 (MCE) were diluted in 100% DMSO, starting at 100 mM, 1 mM, and 1 mM respectively, in 3-fold serial dilutions. Test compounds were diluted in 100% DMSO starting from 10 mM, 3-fold dilutions. The cAMP assay buffer contains 1x Hank’s Buffered Saline Solution with Ca^2+ and Mg^2+ (Invitrogen), 5.3 mM HEPES (Invitrogen), 0.05% BSA, 0.5 mM IBMX (Sigma).
For all assays, cells were harvested, counted, and diluted in cAMP assay buffer to 1× 10^5 cells/mL. Only cells with viability >85% were used for the assay. Cells were seeded at 1000 cells/well in 384-well plates and 10 nL/well AM251 or test compound was added and incubated at 37° C. for 10 min. […] To detect the amount of cAMP produced, 5 µL of a 100x diluted stock of Eu-cAMP tracer and 5 µL of 200x diluted stock of Ulight-anti-cAMP were added to each well, and the plate incubated at 25° C. for 15 min. The FRET signal was read using an EnVision microplate reader (λex=320 nm, λem=615 nm and 665 nm).
The IC50 is determined by fitting the percentage of inhibition as a function of compound concentrations with the Hill equation, using a 4-parameter fit in either XLfit or GraphPad Prism.

CB1 receptor, sequence (P21554 whole entry): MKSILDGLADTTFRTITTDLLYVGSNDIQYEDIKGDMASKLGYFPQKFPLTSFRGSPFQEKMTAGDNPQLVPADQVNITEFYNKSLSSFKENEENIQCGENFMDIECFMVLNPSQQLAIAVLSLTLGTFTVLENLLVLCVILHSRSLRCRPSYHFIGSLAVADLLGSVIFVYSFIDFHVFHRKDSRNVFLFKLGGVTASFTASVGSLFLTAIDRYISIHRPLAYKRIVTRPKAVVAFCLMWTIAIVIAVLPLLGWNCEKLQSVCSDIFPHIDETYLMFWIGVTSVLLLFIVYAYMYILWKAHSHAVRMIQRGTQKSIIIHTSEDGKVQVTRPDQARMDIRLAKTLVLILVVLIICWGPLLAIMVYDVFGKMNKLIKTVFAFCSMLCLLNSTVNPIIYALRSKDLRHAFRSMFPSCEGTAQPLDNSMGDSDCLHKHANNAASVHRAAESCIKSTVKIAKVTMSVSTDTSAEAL

| IC50 [µM] | SMILES |
| --- | --- |
| > 5 | C[C@H](C(N)=O)n1c(N2C[C@@H](c3ccccc3)C(c3ccc(Cl)cc3)=N2)nn(Cc2ccc(Cl)cn2)c1=O [Compound 213] |
| < 0.1 | COc1ccc(Cn2nc(N3C[C@H](c4ccccc4)C(c4ccc(Cl)cc4)=N3)n(C)c2=O)cc1 [Compound 143] |
| < 0.1 | NC(=O)Cn1c(N2C[C@H](c3ccccc3)C(c3ccc(Cl)cc3)=N2)nn(Cc2ccc(Cl)cc2)c1=O [Compound 107, 2-[3-[(4S)-3-(4-chlorophenyl)-4-phenyl-4,5-dihydro-1H-pyrazol-1-yl]-1-[(4-chlorophenyl)methyl]-5-oxo-4,5-dihydro-1H-1,2,4-triazol-4-yl]acetamide] |
| 0.1 to 1 | O=c1n(Cc2ccc(Cl)cc2)nc(N2CC3(CCc4ccccc43)C(c3ccc(Cl)cc3)=N2)n1CCO (stereo in doubt) [Compound 118, 3-[(1R)-3-(4-chlorophenyl)-1,2,3,5-tetrahydrospiro[indene-1,4-pyrazol]-1-yl]-1-[(4-chlorophenyl)methyl]-4-(2-hydroxyethyl)-4,5-dihydro-1H-1,2,4-triazol-5-one] |
| 0.1 to 1 | C[C@@H](c1ccc(Cl)cc1)n1nc(N2CC(c3ccccc3)C(c3ccc(Cl)cc3)=N2)n(CC(N)=O)c1=O (stereo in doubt) [Compound 150, 2-[3-[(4S)-3-(4-chlorophenyl)-4-phenyl-4,5-dihydropyrazol-1-yl]-1-[(1S)-1-(4-chlorophenyl)ethyl]-5-oxo-1,2,4-triazol-4-yl]acetamide] |
| 1 to 5 | CN1CCN(Cc2ccc(Cn3nc(N4C[C@H](c5ccccc5)C(c5ccc(Cl)cc5)=N4)n(C)c3=O)cc2)CC1 [Compound 137] |
| < 0.1 | C[C@H](C(=O)NCCO)n1c(N2C[C@H](c3ccccc3)C(c3ccc(Cl)cc3)=N2)nn(Cc2ccc(Cl)cc2)c1=O [Compound 190, (2R)-2-[3-[(4S)-3-(4-chlorophenyl)-4-phenyl-4,5-dihydropyrazol-1-yl]-1-[(4-chlorophenyl)methyl]-5-oxo-1,2,4-triazol-4-yl]-N-(2-hydroxyethyl)propanamide] |
| > 5 | NC(=O)Cn1c(N2C[C@@]3(CCc4ccccc43)C(c3ccc(Cl)cc3)=N2)nn(-c2ccc(Cl)cc2)c1=O [Compound 119] |
| 0.1 to 1 | Cn1c(N2C[C@H](c3ccccc3)C(c3ccc(Cl)cc3)=N2)nn(Cc2ccc(Cl)cc2)c1=O [Compound 102] |
| 1 to 5 | NC(=O)CCn1c(N2CC3(CCc4ccccc43)C(c3ccc(Cl)cc3)=N2)nn(Cc2ccc(Cl)cc2)c1=O (stereo in doubt) [Compound 132, 3-[3-[(1R)-3-(4-chlorophenyl)-1,2,3,5-tetrahydrospiro[indene-1,4-pyrazol]-1-yl]-1-[(4-chlorophenyl)methyl]-5-oxo-4,5-dihydro-1H-1,2,4-triazol-4-yl]propanamide] |
| 0.1 to 1 | CC(C(N)=O)n1c(N2C[C@H](c3ccccc3)C(c3ccc(Cl)cc3)=N2)nn(Cc2ccc(CN3CCOCC3)cc2)c1=O (stereo partly shown) [Compound 167] |
| > 5 | Cn1c(N2C[C@@]3(CCc4ccccc43)C(c3ccc(Cl)cc3)=N2)nn(-c2ccc(Cl)cc2)c1=O [Compound 116] |
| > 5 | Cn1c(N2C[C@]3(CCc4ccccc43)C(c3ccc(Cl)cc3)=N2)nn(-c2ccc(Cl)cc2)c1=O [Compound 109] |
| 1 to 5 | Cc1ccc(Cn2nc(N3C[C@@H](c4ccccc4)C(c4ccc(Cl)cc4)=N3)n(C)c2=O)cc1 [Compound 161] |
| 1 to 5 | NC(=O)CCn1c(N2CC3(CCc4ccccc43)C(c3ccc(Cl)cc3)=N2)nn(Cc2ccc(Cl)cc2)c1=O (stereo in doubt) [Compound 133, 3-[3-[(1S)-3-(4-chlorophenyl)-1,2,3,5-tetrahydrospiro[indene-1,4-pyrazol]-1-yl]-1-[(4-chlorophenyl)methyl]-5-oxo-4,5-dihydro-1H-1,2,4-triazol-4-yl]propanamide] |
| 1 to 5 | COCCn1c(N2CC3(CCc4ccccc43)C(c3ccc(Cl)cc3)=N2)nn(Cc2ccc(Cl)cc2)c1=O (stereo in doubt) [Compound 120, 3-[(1R)-3-(4-chlorophenyl)-1,2,3,5-tetrahydrospiro[indene-1,4-pyrazol]-1-yl]-1-[(4-chlorophenyl)methyl]-4-(2-methoxyethyl)-4,5-dihydro-1H-1,2,4-triazol-5-one] |

| IC50 [µM] | SMILES |
| --- | --- |
| < 0.1 | Cc1ccc(Cn2nc(N3CC(c4ccccc4)C(c4ccc(Cl)cc4)=N3)n(C)c2=O)cc1F (stereo not shown) [Compound 175] |
| < 0.1 | C[C@@H](C(N)=O)n1c(N2C[C@H](c3ccccc3)C(c3ccc(Cl)cc3)=N2)nn(Cc2ccc(Cl)cn2)c1=O [Compound 207] |
| > 5 | C[C@@H](C(=O)NCCO)n1c(N2C[C@@H](c3ccccc3)C(c3ccc(Cl)cc3)=N2)nn(Cc2ccc(Cl)cc2)c1=O [Compound 187, (2S)-2-[3-[(4R)-3-(4-chlorophenyl)-4-phenyl-4,5-dihydropyrazol-1-yl]-1-[(4-chlorophenyl)methyl]-5-oxo-1,2,4-triazol-4-yl]-N-(2-hydroxyethyl)propanamide] |
| 0.1 to 1 | Cc1ncc(Cn2nc(N3CC(c4ccccc4)C(c4ccc(Cl)cc4)=N3)n(C)c2=O)cn1 (stereo not shown) [Compound 196] |
| 1 to 5 | Cn1c(N2CC3(CCc4ccccc43)C(c3ccc(Cl)cc3)=N2)nn(CC2CCCCC2)c1=O (stereo in doubt) [Compound 140, 3-[(1R)-3-(4-chlorophenyl)-1,2,3,5-tetrahydrospiro[indene-1,4-pyrazol]-1-yl]-1-(cyclohexylmethyl)-4-methyl-4,5-dihydro-1H-1,2,4-triazol-5-one] |
| 0.1 to 1 | Cn1c(N2CC(c3ccccc3)C(c3ccc(Cl)cc3)=N2)nn(Cc2cccc(C(N)=O)c2)c1=O (stereo not shown) [Compound 182] |
| > 5 | Cn1nc(N2C[C@]3(CCc4ccccc43)C(c3ccc(Cl)cc3)=N2)n(C)c1=O [Compound 138] |
| < 0.1 | C[C@@H](C(=O)NCCO)n1c(N2C[C@H](c3ccccc3)C(c3ccc(Cl)cc3)=N2)nn(Cc2ccc(Cl)cc2)c1=O [Compound 184, (2S)-2-[3-[(4S)-3-(4-chlorophenyl)-4-phenyl-4,5-dihydropyrazol-1-yl]-1-[(4-chlorophenyl)methyl]-5-oxo-1,2,4-triazol-4-yl]-N-(2-hydroxyethyl)propanamide] |
| 0.1 to 1 | NC(=O)Cn1c(N2C[C@]3(CCc4ccccc43)C(c3ccc(Cl)cc3)=N2)nn(-c2ccc(Cl)cc2)c1=O [Compound 124, 2-[1-(4-chlorophenyl)-3-[(1R)-3-(4-chlorophenyl)-1,2,3,5-tetrahydrospiro[indene-1,4-pyrazol]-1-yl]-5-oxo-4,5-dihydro-1H-1,2,4-triazol-4-yl]acetamide] |
| 0.1 to 1 | COc1ccc(Cn2nc(N3CC(c4ccccc4)C(c4ccc(Cl)cc4)=N3)n([C@@H](C)C(N)=O)c2=O)cc1OC (stereo partly drawn) [Compound 194, (2S)-2-[3-[3-(4-chlorophenyl)-4-phenyl-4,5-dihydropyrazol-1-yl]-1-[(3,4-dimethoxyphenyl)methyl]-5-oxo-1,2,4-triazol-4-yl]propanamide] |
| 1 to 5 | C[C@H](c1ccc(Cl)cc1)n1nc(N2C[C@@H](c3ccccc3)C(c3ccc(Cl)cc3)=N2)n(CC(N)=O)c1=O [Compound 152] |
| 1 to 5 | Cn1c(N2C[C@@H](c3ccccc3)C(c3ccc(Cl)cc3)=N2)nn(Cc2ccc(CN3CCOCC3)cc2)c1=O [Compound 134] |
| 1 to 5 | NC(=O)Cn1c(N2C[C@@H](c3ccccc3)C(c3ccc(Cl)cc3)=N2)nn(Cc2ccc(Cl)cc2)c1=O [Compound 106, 2-[3-[(4R)-3-(4-chlorophenyl)-4-phenyl-4,5-dihydro-1H-pyrazol-1-yl]-1-[(4-chlorophenyl)methyl]-5-oxo-4,5-dihydro-1H-1,2,4-triazol-4-yl]acetamide] |
| < 0.1 | CCOC(=O)Cn1c(N2C[C@@H](c3ccccc3)C(c3ccc(Cl)cc3)=N2)nn(-c2ccc(Cl)cc2)c1=O [Compound 105, ethyl 2-[1-(4-chlorophenyl)-3-[(4R)-3-(4-chlorophenyl)-4-phenyl-4,5-dihydro-1H-pyrazol-1-yl]-5-oxo-4,5-dihydro-1H-1,2,4-triazol-4-yl]acetate] |
| > 5 | Cn1c(N2CC(c3ccccc3)C(c3ccc(Cl)cc3)=N2)nn(CCc2ccc(C(=O)O)cc2)c1=O (stereo not shown) [Compound 195] |

| SMILES | IC50 [µM] |
| --- | --- |
| Cn1c(N2CC(c3ccccc3)C(c3ccc(Cl)cc3)=N2)nn(Cc2ccc(Cl)cn2)c1=O (stereo not shown) [Compound 177] | < 0.1 |
| Cn1c(N2C[C@H](c3ccccc3)C(c3ccc(Cl)cc3)=N2)nn(-c2ccc(Cl)cc2)c1=O [Compound 101, 1-(4-chlorophenyl)-3-[(4S)-3-(4-chlorophenyl)-4-phenyl-4,5-dihydro-1H-pyrazol-1-yl]-4-methyl-4,5-dihydro-1H-1,2,4-triazol-5-one] | < 0.1 |
| Cn1c(N2C[C@@H](c3ccccc3)C(c3ccc(Cl)cc3)=N2)nn(Cc2ccccc2)c1=O [Compound 166] | 0.1 to 1 |
